One assay has as its target HPK1 (Homo sapiens (Human), UniProt Q92918). The assay is described as follows: HPK1 ADP-Glo enzyme assay. Format: biochemical. As to conditions: HPK1 protein 5 nM, MBP and ATP substrate, ADP-Glo readout. The procedure:
The buffer used in the enzyme assay contains 5 mM MOPS (pH=7.2), 2.5 mM β-Glycerol Phosphate, 0.4 mM EDTA, 1 mM EGTA, 0.05 mM DTT, 5 mM MgCl2. The compound was dissolved in 100% DMSO at the concentration was 10 mM. The initial concentration of the test was 5 uM, and ten data points were diluted by three-fold gradient, and each point was repeatedly measured twice. The HPK1 protein was purchased from Thermo (Cat. No. PV6355) and diluted to 2× stock solution at the concentration of 10 nM (the final concentration of the enzyme assay was 5 nM). 2.5 µl of 2×HPK1 protein was added to each well of the plate containing the test compound, centrifuged at 1000 rpm for 30 seconds, and then incubated at 25° C. for 15 minutes. MBP protein was purchased from Millipore (Cat. No. 13-110) and ATP was purchased from Sigma (Cat. No. A7699-5G) and the two were formulated into 2× working solutions at concentrations of 4 uM and 80 uM. Added 2.5 μl mixture of 2×MBP and ATP, centrifuged at 1000 rpm for 30 seconds, then incubated at 25° C. for 90 minutes. Then added 5 ul of ADP-Glo™ (Promega, Cat. No. V9102) to the assay plate and incubated […] at 25° C. for 60 minutes. Finally, 10 ul of the kinase assay reagent (Promega, Cat. No. V9102) was added to the assay plate, centrifuged at 1000 rpm for 30 seconds at 25° C. for 60 minutes, and the […] intensity was determined.
(In general: In ADP-Glo the light output rises with the ADP produced.)

Assay [1] concerns pSLP-76(Ser376) in Jurkat E6-1 cells. Briefly: Jurkat E6-1 pSLP-76(Ser376) HTRF experiment. It is filed as cell-based. As to conditions: 4 hours compound incubation, anti-human CD3 antibody 20 minutes, Phospho-SLP-76 / SLP-76 HTRF. The method, then:
Jurkat E6-1 cells were purchased from ATCC (Cat. No. TIB-152TM) and cultured overnight with RPMI 1640 containing 0.5% o FBS, after that 20 μL (10^7 cells/mL) cells were added to the experimental plates. Then the test compounds were diluted by three-fold gradient, and 10 different concentrations were prepared, and 5 μl of each was added to the experimental plate, and incubated for 4 hours in 37° C. incubator containing 5% CO2. Then 5 ul of 6× anti-human CD3 antibody (Biolegend, Cat. No. 300432) was added and incubated for 20 minutes in 37° C. incubator containing 5% CO2. Finally, the Phospho-SLP-76 and SLP-76 results were determined using the Cisbio Phospho-SLP-76 and SLP-76 HTRF assay kits (items: 63ADK076PEH and 63ADK077PEH, respectively). Based on the results, the IC50 of the compound is calculated.
In general terms: In TR-FRET formats the signal depends on donor and acceptor labels being close together.

Structures are written as SMILES.

By IC50 is commonly meant the concentration needed to halve the response being measured. High values mean a need for much substance, low ones inhibition by little substance.

HPK1, sequence (Q92918 whole entry): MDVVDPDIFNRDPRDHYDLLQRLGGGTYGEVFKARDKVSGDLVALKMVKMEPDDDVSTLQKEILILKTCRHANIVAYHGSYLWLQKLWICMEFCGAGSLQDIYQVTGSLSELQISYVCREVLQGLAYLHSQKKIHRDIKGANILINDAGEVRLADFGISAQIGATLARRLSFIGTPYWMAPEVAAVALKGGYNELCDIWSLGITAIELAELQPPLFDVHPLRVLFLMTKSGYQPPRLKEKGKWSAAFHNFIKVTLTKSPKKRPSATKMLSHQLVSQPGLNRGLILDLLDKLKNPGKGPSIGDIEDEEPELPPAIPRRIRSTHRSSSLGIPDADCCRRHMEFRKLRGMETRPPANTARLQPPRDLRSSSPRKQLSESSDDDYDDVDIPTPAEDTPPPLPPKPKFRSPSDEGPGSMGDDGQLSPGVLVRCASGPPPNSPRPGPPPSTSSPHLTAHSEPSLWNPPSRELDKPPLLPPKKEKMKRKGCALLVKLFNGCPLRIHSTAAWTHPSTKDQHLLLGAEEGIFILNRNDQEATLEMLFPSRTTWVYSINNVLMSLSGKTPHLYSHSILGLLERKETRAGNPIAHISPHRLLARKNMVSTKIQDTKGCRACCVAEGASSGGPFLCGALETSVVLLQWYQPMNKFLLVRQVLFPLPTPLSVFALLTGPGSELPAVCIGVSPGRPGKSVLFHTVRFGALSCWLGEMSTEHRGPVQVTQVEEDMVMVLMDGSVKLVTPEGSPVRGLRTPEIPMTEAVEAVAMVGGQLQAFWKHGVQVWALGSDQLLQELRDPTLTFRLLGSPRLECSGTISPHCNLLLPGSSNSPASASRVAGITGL

Consider `CN1CCC(c2ncc(-c3cnc(N)c(OCc4ccncc4)c3)s2)CC1` [A1], for which the IC50 against HPK1 was under 100 nM; in assay [1], under 1000 nM.
Turning to `CN1CCC(c2ncc(-c3cnc(N)c(OCc4ccccc4)c3)s2)CC1` [A2], the IC50 lay in the range of 100 to 1000 nM against HPK1 and 1000 to 50000 nM in assay [1].
In assay [1], `CN1CCC(c2ncc(-c3cnc(N)c(OCc4cccc(C#CC(C)(C)O)c4)c3)s2)CC1` [A3] showed a 50% inhibitory concentration (IC50) of under 1000 nM.
Consider `CC(Oc1cc(-c2cnc(C3CCN(C)CC3)s2)cnc1N)c1ccncc1` (stereo not shown) [A4], for which the IC50 on HPK1 is 100 to 1000 nM; in assay [1], 1000 to 50000 nM.
The matching figures for `CN1CCC(c2ncc(-c3cnc(N)c(OCc4ccc(F)cc4)c3)s2)CC1` [A5]: 100 to 1000 nM and 1000 to 50000 nM.
Molecule `Nc1ncc(-c2cnc(C3CCNCC3)s2)cc1OCc1ccncc1` [A7] had an IC50 in assay [1] of under 1000 nM.
`CN1CCC(c2ncc(-c3cnc(N)c(OCc4ccnc(Cl)c4)c3)s2)CC1` [A8] had an IC50 in assay [1] of 1000 to 50000 nM.
`CN1CCC(c2ncc(-c3cnc(N)c(OCc4ccnc(C#CC(C)(C)O)c4)c3)s2)CC1` [A10]: the IC50 in assay [1] was under 1000 nM.
`CN1CCC(c2ncc(-c3cnc(N)c(OCc4ccnc(C#N)c4)c3)s2)CC1` [A11]: the IC50 was in the range of 100 to 1000 nM at HPK1 and 1000 to 50000 nM in assay [1].
For `CN1CCN(c2ncc(-c3cnc(N)c(OCc4ccncc4)c3)s2)CC1` [A12], the IC50 in assay [1] is under 1000 nM.
Same read-out and setting: then `Nc1ncc(-c2cnc(C3CCOCC3)s2)cc1OCc1ccncc1` [A13], with under 1000 nM.
For `Cc1nc(C2CCN(C)CC2)sc1-c1cnc(N)c(OCc2ccncc2)n1` [A15], the IC50 on HPK1 was 100 to 1000 nM.
Turning to `CSc1ncc(-c2cnc(N)c(OCc3cccc(C#CC(C)(C)O)c3)c2)s1` [A17], the IC50 was under 100 nM against HPK1 and 1000 to 50000 nM in assay [1].
`CC(C)(O)C#Cc1cccc(COc2cc(-c3cnc(Oc4ccccc4)s3)cnc2N)c1` [A18] gave an IC50 at HPK1 of 100 to 1000 nM.
As to `CN1CCC(c2ncc(-c3cnc(N)c(OCc4cc(C#CC(C)(C)O)ccc4F)c3)s2)CC1` [A19], the IC50 is under 100 nM against HPK1 and under 1000 nM in assay [1].
The matching figures for `CCC(C)c1ncc(-c2cnc(N)c(OCc3cccc(C#CC(C)(C)O)c3)c2)s1` (stereo not shown) [A20]: under 100 nM and 1000 to 50000 nM.
The matching figures for `CC(C)c1ncc(-c2cnc(N)c(OCc3cc(C#CC(C)(C)O)ccc3F)c2)s1` [A21]: under 100 nM and under 1000 nM.
The matching figures for `CC1CN(c2ncc(-c3cnc(N)c(OCc4cccc(C#CC(C)(C)O)c4)c3)s2)CCN1C` (stereo not shown) [A22]: under 100 nM and under 1000 nM.
As to `CC(C)(O)C#Cc1cccc(COc2cc(-c3cnc(C4CCOCC4)s3)cnc2N)c1` [A23], the figures for the IC50 (against HPK1; in assay [1]) were under 100 nM and under 1000 nM, respectively.
The corresponding values for `CN1CCCN(c2ncc(-c3cnc(N)c(OCc4cccc(C#CC(C)(C)O)c4)c3)s2)CC1` [A24] are under 100 nM and under 1000 nM.
The corresponding values for `CN1CCN(c2ncc(-c3cnc(N)c(OCc4cccc(C#CC(C)(C)O)c4)c3)s2)CC1` [A25] are under 100 nM and under 1000 nM.
The corresponding values for `CC1CN(c2ncc(-c3cnc(N)c(OCc4cccc(C#CC(C)(C)O)c4)c3)s2)CC(C)N1C` (stereo not shown) [A26] are under 100 nM and under 1000 nM.
In the case of `CC(C)(O)C#Cc1cccc(COc2cc(-c3cnc(C4CCN(CC(F)(F)F)CC4)s3)cnc2N)c1` [A27], the IC50 at HPK1 is under 100 nM; in assay [1] it was 1000 to 50000 nM.
In turn, `CC(C)(O)C#Cc1cccc(COc2cc(-c3cnc(N4CCCCC4)s3)cnc2N)c1` [A29] came in with an IC50 on HPK1 of 100 to 1000 nM.
Still for that read-out and setting: then `CC(C)(O)C#Cc1cccc(COc2cc(-c3cnc(C4CCCCC4)s3)cnc2N)c1` [A30], with 100 to 1000 nM.
In the case of `CC(C)(O)C#Cc1ccc(F)c(COc2cc(-c3cnc(C4CCNCC4)s3)cnc2N)c1` [A31], the IC50 was under 100 nM against HPK1 and under 1000 nM in assay [1].
On to `CN1CCC(n2cc(-c3cnc(N)c(OCc4cccc(C#CC(C)(C)O)c4)c3)cn2)CC1` [A32], for which the IC50 against HPK1 is under 100 nM; in assay [1], under 1000 nM.
On to `CN1CCC(c2ncc(-c3cnc(N)c(OCc4cccc(C#CC(C)(O)C(F)(F)F)c4)c3)s2)CC1` (stereo not shown) [A33], for which the half-maximal inhibitory concentration (IC50) against HPK1 is over 1000 nM.
Turning to `CN1CCC(c2ncc(-c3cnc(N)c(OCc4cccc(C#CC5(O)CCCC5)c4)c3)s2)CC1` [A34], the IC50 in assay [1] was under 1000 nM.
Take `Cc1ncc(-c2cnc(N)c(OCc3ccncc3)c2)s1` [A35]: the IC50 against HPK1 lay in the range of 100 to 1000 nM; in assay [1], 1000 to 50000 nM.
With `CC(C)c1ncc(-c2cnc(N)c(OCc3ccncc3)c2)s1` [A36], in assay [1], the IC50 was 1000 to 50000 nM.
On the same count and under the same terms, then `Nc1ncc(-c2cnc(C3CCCCC3)s2)cc1OCc1ccncc1` [A37], with under 1000 nM.
For the molecule `C#Cc1cc(COc2cc(-c3cnc(C4CCN(C)CC4)s3)cnc2N)ccn1` [A39], the IC50 at HPK1 is under 100 nM; in assay [1], under 1000 nM.
Consider `CN1CCC(c2ncc(-c3cnc(N)c(OCc4cccc(C#CC5(O)CCC5)c4)c3)s2)CC1` [A40], for which the IC50 in assay [1] was under 1000 nM.
Still for that read-out and setting: then `CC(C)c1ncc(-c2cnc(N)c(OCc3cccc(C#CC(C)(C)O)c3)c2)s1` [A41], with 1000 to 50000 nM.
Still for that read-out and setting: then `CC(C)(O)C#Cc1cccc(COc2cc(-c3cnc(C4CCNCC4)s3)cnc2N)c1` [A42], with under 1000 nM.
With `CN1CCC(c2ccc(-c3cnc(N)c(OCc4ccncc4)c3)nc2)CC1` [A43], the IC50 against HPK1 is 100 to 1000 nM; in assay [1] it was 1000 to 50000 nM.
On HPK1, `CN1CCC(c2ccnc(-c3cnc(N)c(OCc4cccc(C#CC(C)(C)O)c4)c3)c2)CC1` [A58] gave a concentration for half-maximal inhibition (IC50) of 100 to 1000 nM.
On HPK1, `CN1CCC(c2ncc(-c3cnc(N)c(OCc4cccc(C#CC5(O)CCCCC5=O)c4)c3)s2)CC1` (stereo not shown) [A61] returned an IC50 of 100 to 1000 nM.
On the same count and under the same terms, then `CC(C)c1ncc(-c2cnc(N)c(OCc3cc(C#CC(C)(C)O)ccc3CN)c2)s1` [A67], with under 100 nM; and `CN1CCN(C2CCN(c3ncc(-c4cnc(N)c(OCc5cccc(C#CC(C)(C)O)c5)c4)s3)CC2)CC1` [A69], with under 100 nM.
On the same count and under the same terms, next, `CC(C)c1ncc(-c2cnc(N)c(OCc3cc(C#CC(C)(C)O)cc(CN)c3)c2)s1` [A70]: under 100 nM; `CN1CCC(c2ncc(-c3cnc(N)c(OCc4cccc(C#CC(C)(C)O)c4)c3)s2)C1` (stereo not shown) [A72]: under 100 nM.
The same measure, in the same setting: then `CN1CCC(n2cc(-c3cnc(N)c(OCc4cc(C#CC(C)(C)O)ccc4F)c3)cn2)CC1` [A73], with under 100 nM.
Consider `CN1CCC(n2cc(-c3cnc(N)c(OCc4cccc(C#CC(C)(O)CF)c4)c3)cn2)CC1` (stereo not shown) [A74], for which the IC50 against HPK1 was under 100 nM.
In turn, `CN1CCC(c2ncc(-c3cnc(N)c(OCc4ccc(F)c(C#CC(C)(C)O)c4)c3)s2)CC1` [A75] showed an IC50 against HPK1 of under 100 nM.
The same measure, in the same setting: then `CN1CCC(c2ncc(-c3cnc(N)c(OCc4cc(C#CC(C)(C)O)ccc4C(F)(F)F)c3)s2)CC1` [A76], with under 100 nM; and `CC(C)(O)C#Cc1cccc(COc2cc(-c3cnn(C4CCNCC4)c3)cnc2N)c1` [A79], with under 100 nM; and `CC(C)(O)C#Cc1cccc(COc2cc(-c3cnn(C4CCOCC4)c3)cnc2N)c1` [A80], with under 100 nM.
Still for that read-out and setting: then `CC(C)(O)C#Cc1cc(CN)cc(COc2cc(-c3cnc(C4CCOCC4)s3)cnc2N)c1` [A81], with under 100 nM.
The same measure, in the same setting: then `CN1CCC(c2ncc(-c3cnc(N)c(OCc4cc(C#CC(C)(C)O)cc(CN)c4)c3)s2)CC1` [A83], with under 100 nM; and `CC(C)(O)C#Cc1ccc(CN)c(COc2cc(-c3cnc(C4CCOCC4)s3)cnc2N)c1` [A84], with under 100 nM.
With `Nc1ncc(-c2cccc(N3CCOCC3=O)c2)cc1OCc1ccncc1` [A85], at HPK1, the IC50 was over 1000 nM.

These data come from patent publication US20240300941A1, “HPK1 INHIBITORS, PREPARATION METHOD AND APPLICATION THEREOF” (ZHUHAI YUFAN BIOTECHNOLOGIES CO., LTD., priority 2018, published 2024).
